These results are taken from patent US20240327408A1, “COMPOUNDS CONTAINING TETRAHYDRONAPHTHYRIDINONE OR TETRAHYDROPYRIDOPYRIMIDINONE SKELETON, PREPARATION METHOD THEREFOR AND PHARMACEUTICAL USE THEREOF” (CHINA PHARMACEUTICAL UNIVERSITY, priority 2021, published 2024).

SMILES strings stand for the structures. Where only a bound is given, the exact number is not on record here.

The target in one test is T1, hClpP (Homo sapiens, UniProt Q16740).
T1 construct: made in house
Briefly: activating ClpP hydrolysis of FITC-casein (fluorescence kinetic detection). It is filed as biochemical. The settings on record: hClpP 1 μM, FITC-Casein 4 μM, 37° C. The method, then:
The specific procedures were as follows:
Test compounds were each prepared into a 100 mM stock solution in DMSO and stored. and 1 μL of stock solution of each of the compounds was taken and diluted to 10 mM by adding 9 μL of DMSO for later use.
The compounds of formula I of the present invention were each diluted at concentrations of 200 μM, 50 μM, 10 μM, 2 μM, 500 nM, 100 nM, 20 nM, and 2 nM in an assay buffer. 50 μL of each of the compounds at different concentrations was added to each well, with 2 replicate wells.
The protein was diluted to 4 μM in an assay buffer. 25 μL of protein was added to each well, and incubated at 37° C. for 30 min. The final concentration was 1 μM.
25 μL of FITC-Casein was added to each well. The final concentration was 4 μM. The mixture was immediately loaded on the machine for detection.
FITC-Casein and FITC-Casein+ClpP were used as negative controls.
The detection temperature was 37° C. The plate was shaken for 3 s. […] Kinetic parameters were set, and scanning was performed once every 1 min for 15 min.

Another test concerns MV4; 11 cells. Briefly: inhibiting the growth of MV4; 11 cells. It is filed as cell-based. The settings on record: Homo sapiens.

T1 sequence (Q16740 57-277): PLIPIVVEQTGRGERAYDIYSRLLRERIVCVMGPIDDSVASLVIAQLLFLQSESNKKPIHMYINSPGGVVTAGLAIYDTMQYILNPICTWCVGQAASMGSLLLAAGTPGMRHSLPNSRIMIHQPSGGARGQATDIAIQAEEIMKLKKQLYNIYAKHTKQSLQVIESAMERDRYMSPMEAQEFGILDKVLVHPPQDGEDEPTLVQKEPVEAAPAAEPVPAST

One may read the EC50 as the concentration that produces a half-maximal response. A high value points to a less potent agent. One may read the IC50 as the concentration needed to halve the response being measured. In turn, `O=c1c2c(c3cccnc3n1Cc1ccccc1)CCN(Cc1cc(Cl)ccn1)C2` [Compound I-30, 6-benzyl-3-((4-chloropyridin-2-yl)methyl)-2,3,4,6-tetrahydropyrido[3,4-c][1,8]naphthyridine-5-(1H)-one] displayed an EC50 at hClpP of 10000 to 100000 nM. Further, the IC50 in the test on MV4; 11 cells was 1000 to 10000 nM.

In the case of `O=c1c2c(c3cccnc3n1Cc1ccccc1)CCN(Cc1cccnc1)C2` [Compound I-28, 6-benzyl-3-(pyridin-3-ylmethyl)-2,3,4,6-tetrahydropyrido[3,4-c][1,8]naphthyridine-5-(1H)-one], the EC50 on hClpP fell in the range of 10000 to 100000 nM. Further, in the test with MV4; 11 cells, the IC50 was 1000 to 10000 nM.

`Cc1ccc(Cn2c(=O)c3c(n4ccnc24)CCN(Cc2cccc(Cl)c2)C3)cc1` [Compound I-134, 7-(3-chlorobenzyl)-4-(4-methylbenzyl)-6,7,8,9-tetrahydroimidazo[1,2-a]pyrido[3,4-e]pyrimidine-5(4H)-one]: the EC50 at hClpP was below 1000 nM. The same compound yielded an IC50 in the test with MV4; 11 cells below 1000 nM.

Compound `Cc1ccc(Cn2c(=O)c3c(n4ccnc24)CCN(Cc2cccc(C)c2)C3)cc1` [Compound I-135, 7-(3-methylbenzyl)-4-(4-methylbenzyl)-6,7,8,9-tetrahydroimidazo[1,2-a]pyrido[3,4-e]pyrimidine-5(4H)-one] yielded an EC50 at hClpP below 1000 nM. This compound gave an IC50 in the test with MV4; 11 cells below 1000 nM.

With `O=c1c2c(n3cncc3n1Cc1ccc(Cl)cc1)CCN(Cc1cccc(Cl)c1)C2` [Compound I-166, 7-(3-chlorobenzyl)-4-(4-chlorobenzyl)-6,7,8,9-tetrahydroimidazo[1,5-a]pyrido[3,4-e]pyrimidine-5(4H)-one], on hClpP, the EC50 lay within 1000 to 10000 nM. In the test on MV4; 11 cells, this compound yielded an IC50 of 1000 to 10000 nM.

For `N#Cc1cccc(CN2CCc3c(c(=O)n(Cc4ccc(Cl)cc4)c4nccn34)C2)c1` [Compound I-121, 7-(3-cyanobenzyl)-4-(4-chlorobenzyl)-6,7,8,9-tetrahydroimidazo[1,2-a]pyrido[3,4-e]pyrimidine-5(4H)-one], the EC50 on hClpP was below 1000 nM. In addition, in the test with MV4; 11 cells, the IC50 is below 1000 nM.

`CCc1ccc(Cn2c(=O)c3c(n4ccnc24)CCN(Cc2cccc(C)c2)C3)cc1` [Compound I-140, 7-(3-methylbenzyl)-4-(4-ethylbenzyl)-6,7,8,9-tetrahydroimidazo[1,2-a]pyrido[3,4-e]pyrimidine-5(4H)-one] gave an EC50 on hClpP below 1000 nM. Further, the IC50 in the test on MV4; 11 cells is below 1000 nM.

As to `O=c1c2c(c3cccnc3n1Cc1ccccc1)CCN(Cc1ccc(Br)cc1)C2` [Compound I-20, 6-benzyl-3-(4-bromobenzyl)-2,3,4,6-tetrahydropyrido[3,4-c][1,8]naphthyridine-5-(1H)-one], the EC50 on hClpP is 1000 to 10000 nM. Also, the IC50 in the test with MV4; 11 cells is below 1000 nM.

Take `O=c1c2c(c3cccnc3n1Cc1ccccc1)CCN(CC1CCC1)C2` [Compound I-2, 6-benzyl-3-(cyclobutylmethyl)-2,3,4,6-tetrahydropyrido[3,4-c][1,8]naphthyridine-5-(1H)-one]: the EC50 at hClpP lay in the range of 10000 to 100000 nM. This compound had an IC50 in the test on MV4; 11 cells of 1000 to 10000 nM.

`Cc1cccc(CN2CCc3c(c(=O)n(Cc4ccccc4)c4nccn34)C2)c1` [Compound I-110, 7-(3-methylbenzyl)-4-benzyl-6,7,8,9-tetrahydroimidazo[1,2-a]pyrido[3,4-e]pyrimidine-5(4H)-one] had an EC50 on hClpP below 1000 nM. In addition, in the test on MV4; 11 cells, the IC50 was below 1000 nM.

`O=c1c2c(n3ncnc3n1Cc1ccc(Cl)cc1)CCN(Cc1cccc(F)c1)C2` [Compound I-153, 4-(4-chlorobenzyl)-7-(3-fluorobenzyl)-6,7,8,9-tetrahydropyrido[3,4-e][1,2,4]triazolo[1,5-a]pyrimidine-5(4H)-one] yielded an EC50 on hClpP of 1000 to 10000 nM. The same compound had an IC50 in the test on MV4; 11 cells of 1000 to 10000 nM.

At hClpP, `N#Cc1cccc(CN2CCc3c(c(=O)n(Cc4ccc(Cl)cc4)c4ncccc34)C2)c1` [Compound I-85, 6-(4-chlorobenzyl)-3-(3-cyanobenzyl)-2,3,4,6-tetrahydropyrido[3,4-c][1,8]naphthyridine-5-(1H)-one] returned an EC50 below 1000 nM. In addition, in the test with MV4; 11 cells, the IC50 is below 1000 nM.

Regarding `Cc1cccc(Cn2c(=O)c3c(c4cccnc42)CCN(Cc2ccccc2)C3)c1` [Compound I-49, 3-benzyl-6-(3-methylbenzyl)-2,3,4,6-tetrahydropyrido[3,4-c][1,8]naphthyridine-5-(1H)-one], the EC50 at hClpP was below 1000 nM. This compound also came in with an IC50 in the test on MV4; 11 cells below 1000 nM.

In turn, `CCc1ccc(Cn2c(=O)c3c(n4ccnc24)CCN(Cc2cccc(F)c2)C3)cc1` [Compound I-138, 7-(3-fluorobenzyl)-4-(4-ethylbenzyl)-6,7,8,9-tetrahydroimidazo[1,2-a]pyrido[3,4-e]pyrimidine-5(4H)-one] gave an EC50 on hClpP below 1000 nM. Also, the IC50 in the test on MV4; 11 cells was below 1000 nM.

In the case of `Cc1cc(CN2CCc3c(c(=O)n(Cc4ccccc4)c4ncccc34)C2)n(C)n1` [Compound I-26, 6-benzyl-3-((1,3-dimethyl-1H-pyrazol-5-yl)methyl)-2,3,4,6-tetrahydropyrido[3,4-c][1,8]naphthyridine-5-(1H)-one], the EC50 on hClpP lay within 10000 to 100000 nM. In the test on MV4; 11 cells, this compound had an IC50 of 1000 to 10000 nM.

As to `O=c1c2c(n3ccnc3n1Cc1ccc(F)cc1)CCN(Cc1ccccc1)C2` [Compound I-112, 7-benzyl-4-(4-fluorobenzyl)-6,7,8,9-tetrahydroimidazo[1,2-a]pyrido[3,4-e]pyrimidine-5(4H)-one], the EC50 at hClpP was below 1000 nM. In the test on MV4; 11 cells, this compound registered an IC50 below 1000 nM.

Compound `CNc1ccc(Cn2c(=O)c3c(c4cccnc42)CCN(Cc2cccc(C#N)c2)C3)cc1` [Compound I-89, 6-(4-methylaminobenzyl)-3-(3-cyanobenzyl)-2,3,4,6-tetrahydropyrido[3,4-c][1,8]naphthyridine-5-(1H)-one] came in with an EC50 on hClpP of 1000 to 10000 nM. The compound further displayed an IC50 in the test with MV4; 11 cells of 1000 to 10000 nM.

With `O=c1c2c(c3cccnc3n1Cc1ccc(Br)cc1)CCN(Cc1ccccc1)C2` [Compound I-54, 3-benzyl-6-(4-bromobenzyl)-2,3,4,6-tetrahydropyrido[3,4-c][1,8]naphthyridine-5-(1H)-one], at hClpP, the EC50 is below 1000 nM. Besides, in the test on MV4; 11 cells, the IC50 was below 1000 nM.

The compound `N#Cc1cccc(CN2CCc3c(c(=O)n(Cc4ccc(F)cc4F)c4nccn34)C2)c1` [Compound I-126, 7-(3-cyanobenzyl)-4-(2,4-difluorobenzyl)-6,7,8,9-tetrahydroimidazo[1,2-a]pyrido[3,4-e]pyrimidine-5(4H)-one] showed an EC50 at hClpP below 1000 nM. In the test on MV4; 11 cells, the IC50 is below 1000 nM.

Turning to `O=c1c2c(n3nccc3n1Cc1ccc(Cl)cc1)CCN(Cc1ccccc1)C2` [Compound I-161, 4-(4-chlorobenzyl)-7-benzyl-6,7,8,9-tetrahydropyrazolo[1,5-a]pyrido[3,4-e]pyrimidine-5(4H)-one], on hClpP, the EC50 lay in the range of 1000 to 10000 nM. This compound also came in with an IC50 in the test on MV4; 11 cells of 1000 to 10000 nM.

`O=c1c2c(c3cccnc3n1Cc1ccccc1)CCN(Cc1cccc(F)c1)C2` [Compound I-12, 6-benzyl-3-(3-fluorobenzyl)-2,3,4,6-tetrahydropyrido[3,4-c][1,8]naphthyridine-5-(1H)-one] displayed an EC50 on hClpP below 1000 nM. For the same compound, the IC50 in the test on MV4; 11 cells was below 1000 nM.

`O=c1c2c(n3ccnc3n1Cc1ccc3c(c1)OCCO3)CCN(Cc1cccc(Cl)c1)C2` [Compound I-148, 7-(3-chlorobenzyl)-4-((2,3-dihydro[1,4]benzodioxin-6-yl)methyl)-6,7,8,9-tetrahydroimidazo[1,2-a]pyrido[3,4-e]pyrimidine-5(4H)-one] registered an EC50 at hClpP of 1000 to 10000 nM. In the test with MV4; 11 cells, this compound showed an IC50 of 1000 to 10000 nM.
